What was measured:
Type in all cases: binding
GRM1 = target: T1, GRM1 (Homo sapiens, UniProt Q13255); assay: NanoBRET screen HiBiT-GRM1 in HEK293; details: GRM1
T1 construct: purchased Promega (in-house HiBiT-GPCR construct library, NanoBRET)
Protocol: (§1) Each tracer candidate was screened across the entire library of HiBiT-GPCR constructs using NanoBRET as the detection modality. As depicted in Figure 4A, the specificity of interactions was evaluated through decrease in BRET due to competitive displacement of a bound tracer by excess parental compound. Each tracer was analyzed for binding to each HiBiT-GPCR fusion in the absence and in the presence of competing parental compound. Briefly, HEK293 cells were transfected with HiBiT-GPCR constructs diluted into promoterless DNA to reduce expression and maximize translocation to the cell surface. Each tracer candidate was then screened at concentrations of 1 μM and 0.1 μM across cells expressing these fusions. Cells were treated for 1.5 h with tracer either alone or in the presence of 20 μM competing parental compound (i.e., control). BRET was measured upon addition of purified LgBiT and subsequent complementation with HiBiT genetically fused to a GPCR. The specificity of interactions was assessed through a decrease in BRET signal due to competitive displacement of the bound tracer. To further gauge the robustness of these interactions, the fold response over the control (i.e., BRETtracer/BRETcontrol) was calculated. We chose a 1.5-fold response, which translates to ≥7-fold signal over noise as the minimal threshold required to score an interaction as positive. […]. Below we highlight the screening results obtained for our exemplary fluorescent tracers based on Clozapine, Amitriptyline and AZD1283.
(§2) HiBiT-GPCR DNA constructs were diluted in 10 mM Tris pH 8 to a final concentration of 0.01 μg/μL, arrayed in 96-well plates and stored at −20 °C. For transfection, HEK293 cells were suspended in Opti-MEM (without phenol red) supplemented with 2% fetal bovine serum (Seradigm) and 100 units/mL penicillin–streptomycin (Gibco) at a final concentration of 220,000 cells/mL and dispensed into white 96-well plates at 90 μL/well. Subsequent transfections and screens were carried using an Agilent Bravo Automated Liquid Handling Platform. First, the 96-well HiBiT DNA arrays were diluted 25-fold in Opti-MEM (without serum or phenol red) to a final concentration of 0.0004 μg/μL and 20 μL of the diluted DNAs were transferred into new 96-well plates. Next, promoterless carrier DNA (1 μg/μL) was diluted 25-fold (0.04 μg/μL) and then dispensed into the diluted arrays at 20 μL/well. Following brief mixing, Viafect transfection reagent (Promega) diluted 16-fold into Opti-MEM was dispensed into the plates at 40 μL/well. After mixing by pipetting, plates were incubated for 10 min on the pipetting station deck. The DNA-transfection reagent complexes were then added to plates containing cells. To facilitate the screen, 10 μL of DNA-transfection reagent complexes were added in duplicates to the top 4 and bottom 4 rows, resulting in two identical 48-well arrays per plate. Plates with transfected cells were incubated for 18–20 h at 37 °C/5% CO2. A screen of each tracer across the entire library using two different concentrations requires duplicate plates of transfected cells. Depending on the number of tracers being screened, transfections can be scaled up using the same ratios. The next day, for each tracer, four 20× screening solutions in tracer dilution buffer (Promega) were prepared: two duplicates at final concentration of 20 μM and two duplicates at a final concentration of 2 μM. A competing unmodified compound was added to one of each duplicate at a final concentration of 400 μM. The four resulting solutions were diluted 4-fold in Opti-MEM without serum or phenol red to generate 5× solutions (5 µM and 0.5 µM tracer +/− 100 μM competing compound). To screen the library, a BioTek MultiFlo FX liquid dispenser was used to dispense 22.5 µL of tracer solution to the top 4 rows and 22.5 µL tracer + competing compound solution to the 4 bottom rows. Plates were briefly mixed on an orbital shaker and incubated for 1.5 h at room temperature. […]

CXCR5 = target: T2, CXCR5 (Homo sapiens, UniProt P32302); assay: NanoBRET screen HiBiT-CXCR5 in HEK293; details: CXCR5
T2 construct: purchased Promega (in-house HiBiT-GPCR construct library, NanoBRET)
T2 sequence (P32302 1-372): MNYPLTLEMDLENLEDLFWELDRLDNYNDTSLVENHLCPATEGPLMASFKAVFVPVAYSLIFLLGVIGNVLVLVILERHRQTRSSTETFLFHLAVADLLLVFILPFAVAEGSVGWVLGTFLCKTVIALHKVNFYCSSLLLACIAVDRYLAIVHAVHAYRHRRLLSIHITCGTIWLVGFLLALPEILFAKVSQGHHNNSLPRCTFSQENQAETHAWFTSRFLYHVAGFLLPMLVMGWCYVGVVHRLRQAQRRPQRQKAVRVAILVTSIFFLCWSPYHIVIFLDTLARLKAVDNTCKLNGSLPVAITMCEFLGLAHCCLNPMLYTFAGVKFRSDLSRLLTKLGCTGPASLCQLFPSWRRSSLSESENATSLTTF
Protocol: as §1, §2

PTGIR = target: T3, PTGIR (Homo sapiens, UniProt P43119); assay: NanoBRET screen HiBiT-PTGIR in HEK293; details: PTGIR
T3 construct: purchased Promega (in-house HiBiT-GPCR construct library, NanoBRET)
Protocol: as §1, §2

ADORA1 = target: T4, ADORA1 (Homo sapiens, UniProt P30542); assay: NanoBRET screen HiBiT-ADORA1 in HEK293; details: ADORA1
T4 construct: purchased Promega (in-house HiBiT-GPCR construct library, NanoBRET)
T4 sequence (P30542 1-326): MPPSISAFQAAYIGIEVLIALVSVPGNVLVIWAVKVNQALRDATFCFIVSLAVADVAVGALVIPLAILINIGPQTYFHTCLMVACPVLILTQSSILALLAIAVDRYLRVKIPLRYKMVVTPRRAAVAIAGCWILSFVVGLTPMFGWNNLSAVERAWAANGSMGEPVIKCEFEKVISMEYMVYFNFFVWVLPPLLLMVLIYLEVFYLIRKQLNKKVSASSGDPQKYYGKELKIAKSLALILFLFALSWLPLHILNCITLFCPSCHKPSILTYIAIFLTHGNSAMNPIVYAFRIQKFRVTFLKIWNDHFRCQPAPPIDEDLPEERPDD
Protocol: as §1, §2

CXCR2 = target: T5, CXCR2 (Homo sapiens, UniProt P25025); assay: NanoBRET screen HiBiT-CXCR2 in HEK293; details: CXCR2
T5 construct: purchased Promega (in-house HiBiT-GPCR construct library, NanoBRET)
T5 sequence (P25025 1-360): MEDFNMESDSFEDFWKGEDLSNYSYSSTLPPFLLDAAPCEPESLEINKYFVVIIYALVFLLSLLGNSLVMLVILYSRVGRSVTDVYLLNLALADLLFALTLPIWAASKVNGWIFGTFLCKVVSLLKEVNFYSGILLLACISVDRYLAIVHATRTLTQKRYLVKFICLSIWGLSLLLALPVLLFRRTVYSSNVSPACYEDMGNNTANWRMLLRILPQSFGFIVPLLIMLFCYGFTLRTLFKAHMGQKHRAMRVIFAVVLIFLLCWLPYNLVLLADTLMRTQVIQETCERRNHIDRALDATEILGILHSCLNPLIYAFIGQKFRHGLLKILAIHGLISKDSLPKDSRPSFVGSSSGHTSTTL
Protocol: as §1, §2

T3 sequence (P43119 whole entry): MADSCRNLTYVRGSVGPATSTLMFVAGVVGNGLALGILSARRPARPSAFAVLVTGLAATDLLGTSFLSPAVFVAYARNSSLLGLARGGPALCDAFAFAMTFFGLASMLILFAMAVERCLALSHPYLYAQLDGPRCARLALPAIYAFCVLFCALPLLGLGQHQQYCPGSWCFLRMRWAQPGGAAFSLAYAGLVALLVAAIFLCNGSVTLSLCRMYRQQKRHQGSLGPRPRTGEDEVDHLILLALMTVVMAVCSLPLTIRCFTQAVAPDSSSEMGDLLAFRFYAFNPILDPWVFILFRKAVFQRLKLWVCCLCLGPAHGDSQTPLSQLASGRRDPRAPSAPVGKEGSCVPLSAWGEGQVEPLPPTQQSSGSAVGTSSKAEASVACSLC
T1 sequence (Q13255 19-1194): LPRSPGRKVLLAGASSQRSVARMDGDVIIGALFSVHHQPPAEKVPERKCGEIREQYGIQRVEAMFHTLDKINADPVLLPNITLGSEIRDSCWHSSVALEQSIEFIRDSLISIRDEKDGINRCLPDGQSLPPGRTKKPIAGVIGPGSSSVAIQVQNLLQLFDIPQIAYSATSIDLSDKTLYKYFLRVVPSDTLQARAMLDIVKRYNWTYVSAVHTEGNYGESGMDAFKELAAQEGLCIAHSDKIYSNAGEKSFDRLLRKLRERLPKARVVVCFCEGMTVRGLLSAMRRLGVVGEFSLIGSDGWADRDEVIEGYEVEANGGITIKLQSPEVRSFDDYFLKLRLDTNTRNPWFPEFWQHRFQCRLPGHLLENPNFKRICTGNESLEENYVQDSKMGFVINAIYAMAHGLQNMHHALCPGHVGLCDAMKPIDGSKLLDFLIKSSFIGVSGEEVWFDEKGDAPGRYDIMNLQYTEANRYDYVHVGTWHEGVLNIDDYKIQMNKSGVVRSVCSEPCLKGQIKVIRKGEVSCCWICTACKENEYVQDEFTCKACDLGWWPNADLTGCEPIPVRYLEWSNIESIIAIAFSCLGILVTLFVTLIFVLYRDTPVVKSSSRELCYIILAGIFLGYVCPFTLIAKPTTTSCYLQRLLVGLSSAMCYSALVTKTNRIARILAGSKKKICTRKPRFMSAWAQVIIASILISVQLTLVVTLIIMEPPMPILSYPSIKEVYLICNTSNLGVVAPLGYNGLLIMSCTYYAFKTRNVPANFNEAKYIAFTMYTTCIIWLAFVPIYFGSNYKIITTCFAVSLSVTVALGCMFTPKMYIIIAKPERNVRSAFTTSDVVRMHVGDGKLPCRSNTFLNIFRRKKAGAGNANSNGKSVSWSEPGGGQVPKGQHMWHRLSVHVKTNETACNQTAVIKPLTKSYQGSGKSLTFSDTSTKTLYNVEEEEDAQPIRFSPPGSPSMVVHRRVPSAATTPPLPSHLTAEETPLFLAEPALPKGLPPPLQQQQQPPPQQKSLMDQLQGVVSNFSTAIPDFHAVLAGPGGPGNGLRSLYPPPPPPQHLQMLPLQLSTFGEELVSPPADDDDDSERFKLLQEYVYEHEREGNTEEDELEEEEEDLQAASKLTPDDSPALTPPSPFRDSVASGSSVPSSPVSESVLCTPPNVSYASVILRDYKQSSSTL

SMILES	NanoBRET Fold Response (GRM1; tracer 0.1μM)	NanoBRET Fold Response (GRM1; tracer 1μM)	NanoBRET Fold Response (CXCR5; tracer 0.1μM)	NanoBRET Fold Response (CXCR5; tracer 1μM)	NanoBRET Fold Response (PTGIR; tracer 0.1μM)	NanoBRET Fold Response (PTGIR; tracer 1μM)	NanoBRET Fold Response (ADORA1; tracer 0.1μM)	NanoBRET Fold Response (ADORA1; tracer 1μM)	NanoBRET Fold Response (CXCR2; tracer 0.1μM)	NanoBRET Fold Response (CXCR2; tracer 1μM)	NanoBRET Fold Response (GRM1; 0.1μM tracer)	NanoBRET Fold Response (GRM1; 1μM tracer)	NanoBRET Fold Response (CXCR5; 0.1μM tracer)	NanoBRET Fold Response (CXCR5; 1μM tracer)	NanoBRET Fold Response (PTGIR; 0.1μM tracer)	NanoBRET Fold Response (PTGIR; 1μM tracer)	NanoBRET Fold Response (ADORA1; 0.1μM tracer)	NanoBRET Fold Response (ADORA1; 1μM tracer)	NanoBRET Fold Response (CXCR2; 0.1μM tracer)	NanoBRET Fold Response (CXCR2; 1μM tracer)
CC(C)N(CC[C@H](c1ccccc1)c1cc(CCNC(=O)c2ccc(CNC(=O)CCc3ccc4n3[B-](F)(F)[N+]3=C(c5ccc[nH]5)C=CC3=C4)cc2)ccc1O)C(C)C [Tolterodine-BZ-NB590]	0.88	0.19	0.86	0.91	1.00	1.04	1.18	1.02	0.99	1.06										
CN1CCN(C2=Nc3cc(Cl)ccc3Nc3ccc(CNC(=O)CCOCCOCCOCCOCCNC(=O)CCc4ccc5n4[B-](F)(F)[N+]4=C(c6ccc[nH]6)C=CC4=C5)cc32)CC1 [Clozapine-b-2-NB590]											1.05	0.74	0.95	1.02	0.98	1.00	0.99	0.97	0.98	1.06

— PMC8151276, “An Integrated Approach toward NanoBRET Tracers for Analysis of GPCR Ligand Engagement” (Molecules, 2021)
